test system: hepatocellular carcinoma cell line Hub-7; experiment: Cell proliferation assay (CELL-TITER GLO cell viability); type: cell-based; details: 24 h, Hub-7 cells, 24 h incubation, read-out: Inhibition of Cell Proliferation EC50
Procedure: The activity of a test compound was determined in a cell proliferation assay using the hepatocellular carcinoma cell line […]. Cells (4,000 cells per well) were seeded in a 96-well tissue culture plate. After incubated overnight, a test compound was added at predetermined concentrations, starting with 10 μM and followed by 3-fold serial dilution. After the cells were incubated for 24 h, cell viability was determined using a CELL-TITER GLO® assay. The CELL-TITER GLO® reagent (50 μL) was added to each well and the luminescence was measured by a multimode microplate reader after a brief period of shaking. EC50 values were determined for the test compound. The results are summarized in Table 1, wherein A represents a value no greater than 100 nM, B represents a value greater than 100 nM but no greater than 500 nM, C represents a value greater than 500 nM but no greater than 2 μM, D represents a value greater than 2 μM but no greater than 10 μM; and E represents a value greater than 10 μM.

| EC50 [µM] | SMILES |
| --- | --- |
| > 10 | C#CC(=O)N(c1cccc(S(N)(=O)=O)c1)C(C(=O)NC(C)(C)C)c1ccc(N)cc1 (centres unmarked) [A2, N-(1-(4-aminophenyl)-2-(tert-butylamino)-2-oxoethyl)-N-(3-sulfamoylphenyl)propiolamide] |
| ≤ 0.1 | C#CC(=O)N(c1ccc(OC)c(Cl)c1)C(C(=O)NC(C)(C)C)c1ccc(N)cc1 (centres unmarked) [A3, N-(1-(4-Aminophenyl)-2-(tert-butylamino)-2-oxoethyl)-N-(3-chloro-4-methoxy-phenyl)propiolamide] |
| 0.1 to 0.5 | C#CC(=O)N(c1ccc(Cl)cc1)C(C(=O)NC(C)(C)C)c1ccc(N)cc1 (centres unmarked) [A4, N-(1-(4-Aminophenyl)-2-(tert-butylamino)-2-oxoethyl)-N-(4-chlorophenyl)-propiolamide] |
| 0.1 to 0.5 | C#CC(=O)N(c1cccc(Cl)c1)C(C(=O)NC(C)(C)C)c1ccc(N)cc1 (centres unmarked) [A5, N-(1-(4-Aminophenyl)-2-(tert-butylamino)-2-oxoethyl)-N-(3-chlorophenyl)-propiolamide] |
| 2 to 10 | C#CC(=O)N(c1cccc(S(C)(=O)=O)c1)C(C(=O)NC(C)(C)C)c1ccc(N)cc1 (centres unmarked) [A6, N-(1-(4-Aminophenyl)-2-(tert-butylamino)-2-oxoethyl)-N-(3-(methylsulfonyl)phenyl)propiolamide] |
| 0.1 to 0.5 | C#CC(=O)N(c1cccc(OC)c1)C(C(=O)NC(C)(C)C)c1ccc(N)cc1 (centres unmarked) [A7, N-(1-(4-Aminophenyl)-2-(tert-butylamino)-2-oxoethyl)-N-(3-methoxyphenyl)-propiolamide] |
| ≤ 0.1 | C#CC(=O)N(c1cccc(C(=O)OC)c1)C(C(=O)NC(C)(C)C)c1ccc(N)cc1 (centres unmarked) [A8, Methyl 3-(N-(1-(4-aminophenyl)-2-(tert-butylamino)-2-oxoethyl)-propiolamido)-benzoate] |
| 2 to 10 | C#CC(=O)N(c1ccc(N)cc1)C(C(=O)NC(C)(C)C)c1ccc(N)cc1 (centres unmarked) [A9, N-(4-Aminophenyl)-N-(1-(4-aminophenyl)-2-(tert-butylamino)-2-oxoethyl)-propiolamide] |
| > 10 | C#CC(=O)N(c1ccc(C(N)=O)cc1)C(C(=O)NC(C)(C)C)c1ccc(N)cc1 (centres unmarked) [A10, 4-(N-(1-(4-Aminophenyl)-2-(tert-butylamino)-2-oxoethyl)propiolamido)-benzamide] |
| > 10 | C#CC(=O)N(c1ccc(S(N)(=O)=O)cc1)C(C(=O)NC(C)(C)C)c1ccc(N)cc1 (centres unmarked) [A11, N-(1-(4-Aminophenyl)-2-(tert-butylamino)-2-oxoethyl)-N-(4-sulfamoylphenyl)-propiolamide] |
| > 10 | C#CC(=O)N(c1ccc(O)cc1)C(C(=O)NC(C)(C)C)c1ccc(N)cc1 (centres unmarked) [A12, N-(1-(4-Aminophenyl)-2-(tert-butylamino)-2-oxoethyl)-N-(4-hydroxyphenyl)-propiolamide] |
| 2 to 10 | C#CC(=O)N(c1ccc(NC(C)=O)cc1)C(C(=O)NC(C)(C)C)c1ccc(N)cc1 (centres unmarked) [A13, N-(4-Acetamidophenyl)-N-(1-(4-aminophenyl)-2-(tert-butylamino)-2-oxoethyl)-propiolamide] |
| ≤ 0.1 | C#CC(=O)N(c1ccc(C(=O)OC)cc1)C(C(=O)NC(C)(C)C)c1ccc(N)cc1 (centres unmarked) [A14, Methyl 4-(N-(1-(4-aminophenyl)-2-(tert-butylamino)-2-oxoethyl)-propiolamido)-benzoate] |
| 2 to 10 | C#CC(=O)N(c1ccc(S(C)(=O)=O)cc1)C(C(=O)NC(C)(C)C)c1ccc(N)cc1 (centres unmarked) [A15, N-(1-(4-Aminophenyl)-2-(tert-butylamino)-2-oxoethyl)-N-(4-(methylsulfonyl)-phenyl)propiolamide] |
| 2 to 10 | C#CC(=O)N(c1ccc(CO)cc1)C(C(=O)NC(C)(C)C)c1ccc(N)cc1 (centres unmarked) [A16, N-(1-(4-Aminophenyl)-2-(tert-butylamino)-2-oxoethyl)-N-(4-(hydroxymethyl)-phenyl)propiolamide] |
| > 10 | C#CC(=O)N(c1ccc(NS(C)(=O)=O)cc1)C(C(=O)NC(C)(C)C)c1ccc(N)cc1 (centres unmarked) [A17, N-(1-(4-Aminophenyl)-2-(tert-butylamino)-2-oxoethyl)-N-(4-(methyl-sulfonamido)phenyl)propiolamide] |
| 0.5 to 2 | C#CC(=O)N(c1ccc(OC)cc1)C(C(=O)NC(C)(C)C)c1ccc(N)cc1 (centres unmarked) [A18, N-(1-(4-Aminophenyl)-2-(tert-butylamino)-2-oxoethyl)-N-(4-methoxyphenyl)-propiolamide] |
| 0.1 to 0.5 | C#CC(=O)N(c1cccc(Cl)c1)C(C(=O)NC(C)(C)C)c1cccc(N)c1 (centres unmarked) [A20, N-(1-(3-aminophenyl)-2-(tert-butylamino)-2-oxoethyl)-N-(3-chlorophenyl)propiolamide] |
| 0.1 to 0.5 | C#CC(=O)N(c1ccc(OC)c(Cl)c1)C(C(=O)NC(C)(C)C)c1cccc(N)c1 (centres unmarked) [A21, N-(1-(3-Aminophenyl)-2-(tert-butylamino)-2-oxoethyl)-N-(3-chloro-4-methoxyphenyl)propiolamide] |

| EC50 [µM] | SMILES |
| --- | --- |
| 2 to 10 | C#CC(=O)N(c1ccc(N)cc1)C(C(=O)NC(C)(C)C)c1cccc(N)c1 (centres unmarked) [A22, N-(4-Aminophenyl)-N-(1-(3-aminophenyl)-2-(tert-butylamino)-2-oxoethyl)-propiolamide] |
| 2 to 10 | C#CC(=O)N(c1ccc(NC(C)=O)cc1)C(C(=O)NC(C)(C)C)c1cccc(N)c1 (centres unmarked) [A23, N-(4-Acetamidophenyl)-N-(1-(3-aminophenyl)-2-(tert-butylamino)-2-oxoethyl)-propiolamide] |
| > 10 | C#CC(=O)N(c1ccc(NS(C)(=O)=O)cc1)C(C(=O)NC(C)(C)C)c1cccc(N)c1 (centres unmarked) [A24, N-(1-(3-Aminophenyl)-2-(tert-butylamino)-2-oxoethyl)-N-(4-(methyl-sulfonamido)phenyl)propiolamide] |
| > 10 | C#CC(=O)N(c1ccc(S(N)(=O)=O)cc1)C(C(=O)NC(C)(C)C)c1cccc(N)c1 (centres unmarked) [A25, N-(1-(3-Aminophenyl)-2-(tert-butylamino)-2-oxoethyl)-N-(4-sulfamoylphenyl)-propiolamide] |
| 2 to 10 | C#CC(=O)N(c1ccc(CO)cc1)C(C(=O)NC(C)(C)C)c1cccc(N)c1 (centres unmarked) [A26, N-(1-(3-Aminophenyl)-2-(tert-butylamino)-2-oxoethyl)-N-(4-(hydroxymethyl)-phenyl)propiolamide] |
| 2 to 10 | C#CC(=O)N(c1ccc(O)cc1)C(C(=O)NC(C)(C)C)c1cccc(N)c1 (centres unmarked) [A27, N-(1-(3-Aminophenyl)-2-(tert-butylamino)-2-oxoethyl)-N-(4-hydroxyphenyl)-propiolamide] |
| 0.5 to 2 | C#CC(=O)N(c1ccc(OC)cc1)C(C(=O)NC(C)(C)C)c1cccc(N)c1 (centres unmarked) [A29, N-(1-(3-Aminophenyl)-2-(tert-butylamino)-2-oxoethyl)-N-(4-methoxyphenyl)-propiolamide] |
| ≤ 0.1 | C#CC(=O)N(c1cccc(Cl)c1)C(C(=O)NCc1ccccc1)c1ccc(N)cc1 (centres unmarked) [A32, N-(1-(4-Aminophenyl)-2-(benzylamino)-2-oxoethyl)-N-(3-chlorophenyl)-propiolamide] |
| ≤ 0.1 | C#CC(=O)N(c1cccc(Cl)c1)C(C(=O)NCc1ccccc1)c1cccc(N)c1 (centres unmarked) [A33, N-(1-(3-Aminophenyl)-2-(benzylamino)-2-oxoethyl)-N-(3-chlorophenyl)-propiolamide] |
| ≤ 0.1 | C#CC(=O)N(c1ccc(OC)c(Cl)c1)C(C(=O)NCc1ccccc1)c1cccc(N)c1 (centres unmarked) [A34, N-(1-(3-Aminophenyl)-2-(benzylamino)-2-oxoethyl)-N-(3-chloro-4-methoxy-phenyl)propiolamide] |
| 0.5 to 2 | C#CC(=O)N(Cc1ccccc1)C(C(=O)NCc1ccccc1)c1cccc(N)c1 (centres unmarked) [A36, N-(1-(3-Aminophenyl)-2-(benzylamino)-2-oxoethyl)-N-benzylpropiolamide] |
| ≤ 0.1 | C#CC(=O)N(c1cccc(O)c1)C(C(=O)NCc1ccccc1)c1cccc(N)c1 (centres unmarked) [A37, N-(1-(3-Aminophenyl)-2-(benzylamino)-2-oxoethyl)-N-(3-hydroxyphenyl)-propiolamide] |
| 0.1 to 0.5 | C#CC(=O)N(c1cccc(C#N)c1)C(C(=O)NCc1ccccc1)c1cccc(N)c1 (centres unmarked) [A38, N-(1-(3-Aminophenyl)-2-(benzylamino)-2-oxoethyl)-N-(3-cyanophenyl)-propiolamide] |
| 2 to 10 | C#CC(=O)N(c1cccc(CO)c1)C(C(=O)NCc1ccccc1)c1cccc(N)c1 (centres unmarked) [A39, N-(1-(3-Aminophenyl)-2-(benzylamino)-2-oxoethyl)-N-(3-(hydroxymethyl)-phenyl)propiolamide] |
| ≤ 0.1 | C#CC(=O)N(c1cc(Cl)ccc1F)C(C(=O)NCc1ccccc1)c1cccc(N)c1 (centres unmarked) [A40, N-(1-(3-Aminophenyl)-2-(benzylamino)-2-oxoethyl)-N-(5-chloro-2-fluorophenyl)-propiolamide] |
| ≤ 0.1 | C#CC(=O)N(c1cccc(Cl)c1F)C(C(=O)NCc1ccccc1)c1cccc(N)c1 (centres unmarked) [A41, N-(1-(3-Aminophenyl)-2-(benzylamino)-2-oxoethyl)-N-(3-chloro-2-fluoro-phenyl)propiolamide] |
| 2 to 10 | C#CC(=O)N(c1cccc(NS(C)(=O)=O)c1)C(C(=O)NCc1ccccc1)c1cccc(N)c1 (centres unmarked) [A42, N-(1-(3-Aminophenyl)-2-(benzylamino)-2-oxoethyl)-N-(3-(methylsulfonamido)-phenyl)propiolamide] |
| 0.1 to 0.5 | C#CC(=O)N(c1cccc(F)c1)C(C(=O)NCc1ccccc1)c1cccc(N)c1 (centres unmarked) [A43, N-(1-(3-Aminophenyl)-2-(benzylamino)-2-oxoethyl)-N-(3-fluorophenyl)-propiolamide] |

same assay, conditions: Hub-7 cells, 24 h incubation, read-out: Inhibition of Cell Proliferation EC50

| EC50 [µM] | SMILES |
| --- | --- |
| 0.1 to 0.5 | C#CC(=O)N(c1cccc(C(=O)OC)c1)C(C(=O)NC(C)(C)C)c1ccc(N)cc1 (centres unmarked) [A28, Methyl 3-(N-(1-(4-aminophenyl)-2-(tert-butylamino)-2-oxoethyl)-propiolamido)-benzoate] |
